# Patent publication US20230123334A1, “AMINO LIPID COMPOUND, PREPARATION METHOD THEREFOR, AND APPLICATION THEREOF” (SHENZHEN SHENXIN BIOTECHNOLOGY CO., LTD., priority 2020, published 2023)
# Legend:
# HEK293 cells [1] = test: Preliminary screening as mRNA vectors, EGFP mRNA transfection of HEK293 cells; assay type: cell-based; settings: HEK293 cells, 96-well plates, EGFP mRNA 50 ng per well; percentage of GFP fluorescent cells relative to total number of cells (Hoechst)
# In short: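 HEK293 cells in DMEM plus 10% FBS transfected in 96-well format with 50 ng EGFP mRNA per well; Lipofectamine2000 served as positive control. Read-out is the percentage of GFP-fluorescent cells among total cells, counted by Hoechst nuclear stain.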
# HEK293 cells [2] = test: Preliminary screening as DNA vectors, GFP transfection of HEK293 cells; assay type: cell-based; settings: HEK293 cells; lipid/DOPE liposome with 75 ng plasmid DNA (psin-EGFP-IRES-Puro); number of cells expressing GFP divided by total number of nuclei (Hoechst)
# In short: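 HEK293 cells in DMEM/10% FBS transfected with 75 ng EGFP plasmid per well complexed with amino lipid/DOPE liposomes in pH 5.6 sodium acetate. Hoechst nuclear stain added 20-24 h post-transfection, then cells cultured another 20-24 h. Confocal imaging gives GFP-positive cells as % of total nuclei.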
SMILES,Absolute mRNA transfection efficiency in HEK293 cells (HEK293 cells [1]) [%],Absolute DNA transfection efficiency in HEK293 cells (HEK293 cells [2]) [%]
CCCCCCCCCCCCCNc1nc(NCCCCCCCCC)nc(NCCN2CCCCC2)n1 [Compound N9N13D4],0.5,0.0
CCCCCCCCCCCCCCCCCCNc1nc(NCCCCCCCCCCCCCCCCCC)nc(NCCN(C)C)n1 [Compound N18N18D1],2.2,1.9
CCCCCCCCNc1nc(NCCCCCC)nc(NCCN(CC)CC)n1 [Compound N6N8D7],0.1,0.0
CCCCCCCCCCCCCCCSc1nc(NCCCN2CCOCC2)nc(SCCCCCCCCCCC)n1 [Compound S11S15D8],2.1,3.0
CCCCCCCCCCCCCCCCNc1nc(NCCCCCC)nc(NCCCN2CCN(C)CC2)n1 [Compound N6N16D9],0.0,0.0
CCCCCCCCCCCCCCCCNc1nc(NCCN(CC)CC)nc(N(CCCCCCCCCCCC)CCCCCCCCCCCC)n1 [N16^2N12D7],3.0,1.1
CCCCCCCNc1nc(NCCCCCC)nc(NCCN2CCN(C)CC2)n1 [Compound N6N7D5],0.4,0.0
CCCCCCCCCCCCNc1nc(NCCCCCCCCCCCC)nc(NCCCN2CCN(C)CC2)n1 [Compound N12N12D9],1.5,0.0
CCCCCCCCNc1nc(NCCCCCC)nc(NCCN2CCCCC2)n1 [Compound N6N8D4],0.0,0.0
CCCCCCCCCCCCCCCCCCSc1nc(NCCCN2CCOCC2)nc(SCCCCCCCC)n1 [Compound S8S18D8],4.2,18.7
CCCCCCCCCCCCCCCCCCNc1nc(NCCCCCC)nc(NCCN(C)C)n1 [Compound N6N18D1],3.9,1.1
CCCCCCCCCCCCCCCNc1nc(NCCCCCCCC)nc(NCCN2CCCCC2)n1 [Compound N8N15D4],0.0,0.5
CCCCCCCCCCCCCCCCSc1nc(NCCN2CCN(C)CC2)nc(SCCCCCCCCCC)n1 [Compound S10S16D5],13.6,9.4
CCCCCCCCCCCCCCCCCCNc1nc(NCCCCCCCCCCCCCCCCCC)nc(NCC2CCN(C)CC2)n1 [Compound N18N18D10],0.0,0.0
CCCCCCCCCCCCCCCCCCSc1nc(NCCN(C)C)nc(SCCCCCCCCCCC)n1 [Compound S11S18D1],2.7,0.6
CCCCCCCCCCCCCCCNc1nc(NCCN(C)C)nc(N(CCCCCCCCCCCC)CCCCCCCCCCCC)n1 [N15^2N12D1],0.0,0.9
CCCCCCCCCCCCCCCCSc1nc(NCCN2CCCC2)nc(SCCCCCCCCCCCCCC)n1 [Compound S14S16D3],0.2,0.4
CCCCCCCCCCCCSc1nc(NCCN2CCN(C)CC2)nc(SCCCCCCCCCCC)n1 [Compound S11S12D5],9.2,2.8
CCCCCCCCCCCCN(CCCCCCCCCCCC)c1nc(NCCCCCCCC)nc(NCCN(C)C)n1 [N8^2N12D1],0.2,0.0
CCCCCCCCCNc1nc(NCCCCCCCC)nc(NCCCN2CCOCC2)n1 [Compound N8N9D8],0.0,0.0
CCCCCCCCCCCCCCCNc1nc(NCCCCCCCCCCCCC)nc(NCCN2CCCC2)n1 [Compound N13N15D3],4.7,1.4
CCCCCCCCCCCCCCCCCCSc1nc(NCCN2CCCCC2)nc(SCCCCCCCCCC)n1 [Compound S10S18D4],6.2,6.7
CCCCCCCCCCCCCCCCCCNc1nc(NCCCCCCCCCCCCC)nc(NCCCN2CCN(C)CC2)n1 [Compound N13N18D9],0.8,1.1
CCCCCCCCCCCCCCCCNc1nc(NCCCCCCCCCCCC)nc(NCC2CCN(C)CC2)n1 [Compound N12N16D10],0.6,0.0

SMILES,Absolute mRNA transfection efficiency in HEK293 cells (HEK293 cells [1]) [%],Absolute DNA transfection efficiency in HEK293 cells (HEK293 cells [2]) [%]
CCCCCCCCCCCCN(CCCCCCCCCCCC)c1nc(NCCCCCC)nc(NCCCN(C)C)n1 [N6^2N12D6],0.1,0.4
CCCCCCCCCCCCCCCCNc1nc(NCCCCCCCC)nc(NCC2CCN(C)CC2)n1 [Compound N8N16D10],1.5,3.4
CCCCCCCCCCCCCCCNc1nc(NCCCCCCCCCCC)nc(NCCN(CC)CC)n1 [Compound N11N15D7],0.0,0.2
CCCCCCCCCCCCCCCCNc1nc(NCCCCCCCCCCC)nc(NCCN(C)C)n1 [Compound N11N16D1],0.6,0.4
CCCCCCCCCCCCCNc1nc(NCCCCCCCCCCC)nc(NCCCN2CCOCC2)n1 [Compound N11N13D8],0.6,0.0
CCCCCCCCCCCCCCSc1nc(NCC2CCN(C)CC2)nc(SCCCCCCCCCCC)n1 [Compound S11S14D10],38.5,58.1
CCCCCCCCCCCCNc1nc(NCCCCCCCCCCCC)nc(NCCN2CCCCC2)n1 [Compound N12N12D4],2.2,0.4
CCCCCCCCCCCCCCCCCCNc1nc(NCCCCCCCCC)nc(NCCN2CCOCC2)n1 [Compound N9N18D2],25.3,3.6
CCCCCCCCCCCCCCSc1nc(NCCCN2CCOCC2)nc(SCCCCCCCC)n1 [Compound S8S14D8],3.4,17.1
CCCCCCCCCCSc1nc(NCCCN2CCOCC2)nc(SCCCCCCCCCC)n1 [Compound S10S10D8],13.8,14.0
CCCCCCCCCCCCCCCCNc1nc(NCCCCCCCCCCCC)nc(NCCCN2CCOCC2)n1 [Compound N12N16D8],0.9,0.7
CCCCCCCCCCCCCCSc1nc(NCCN(C)C)nc(SCCCCCCCCCCC)n1 [Compound S11S14D1],1.9,2.0
CCCCCCCCCCCCCCCCSc1nc(NCCN2CCCC2)nc(SCCCCCCCC)n1 [Compound S8S16D3],37.3,20.7
CCCCCCCCCCCCNc1nc(NCCCCCCC)nc(NCCN2CCOCC2)n1 [Compound N7N12D2],0.0,0.0
CCCCCCCCCCCCCNc1nc(NCCCCCCCCCCCCC)nc(NCCCN(C)C)n1 [Compound N13N13D6],0.2,2.5
CCCCCCCCCCCCCCCCCCNc1nc(NCCCCCC)nc(NCCN(CC)CC)n1 [Compound N6N18D7],0.3,0.9
CCCCCCCCCCCCCCCCNc1nc(NCCCCCCCCCCCCCCC)nc(NCCN(C)C)n1 [Compound N15N16D1],3.6,1.8
CCCCCCCCCCCCCNc1nc(NCCCCCCCCC)nc(NCCCN(C)C)n1 [Compound N9N13D6],0.4,0.0
CCCCCCCCCCCCCCCCSc1nc(NCCCN2CCOCC2)nc(SCCCCCCCCCCCCCCC)n1 [Compound S15S16D8],0.0,0.0
CCCCCCCCCCCCCCCCNc1nc(NCCCCCCCCCCCC)nc(NCCN2CCCC2)n1 [Compound N12N16D3],3.3,1.2
CCCCCCCCCCCCCCSc1nc(NCCN(C)C)nc(SCCCCCCCCCC)n1 [Compound S10S14D1],0.1,8.5
CCCCCCCCCCCCCCCCCCSc1nc(NCCCN2CCOCC2)nc(SCCCCCCCCCCCCCCCC)n1 [Compound S16S18D8],1.9,0.3
CCCCCCCCCNc1nc(NCCCCCCC)nc(NCCCN(C)C)n1 [Compound N7N9D6],0.0,0.0
CCCCCCCCCCCCSc1nc(NCCN(C)C)nc(SCCCCCCCCCCCC)n1 [Compound S12S12D1],0.6,0.5
